Test results as given in patent publication US10590115B2, “Tetrahydroquinazoline derivatives useful as anticancer agents” (PFIZER INC., priority 2018, dated 2020).

Legend:
[1] = molecular target: T1, GDP-loaded kRas (1-169) G12C, C51S, C80L, C118S (Homo sapiens, UniProt P01116, C118S/C51S/C80L/G12C); assay: Mass Spectrometry Reactivity Assay (MSRA), covalent adduct with kRas G12C; assay type: binding; conditions: 0.5 h at room temperature; 5 μM KRas protein; typical final concentration of the compounds 10 μM
T1 construct: GDP-loaded kRas (1-169) G12C, C51S, C80L, C118S
Method: Mass Spectrometry Reactivity Assay (MSRA)
Compounds presented in the present invention covalently bind to kRas G12C using MSRA to detect a covalent adduct of the exemplary compound and kRas G12C. GDP-loaded kRas (1-169) G12C, C51S, C80L, C118S were diluted in the protein assay buffer 25 mM Hepes pH7.5, 200 mM NaCl, 5% glycerol to concentration of 5 μM and 20 μl of protein was transferred into 96-well plate. […] See K-Ras(G12C) inhibitors allosterically control GTP affinity and effector interactions; Ostrem J M, Peters U, Sos M L, Wells J A, Shokat K M; Nature. 2013, Nov. 28; 503(7477):548-51.
Exemplary compounds dissolved in DMSO were diluted 100-fold into solution containing 20 μl of 5 μM KRas protein in the 96-well plate to initiate the reaction. Mosquito (TPP Lab tech) liquid handling robot was used to add compounds to protein solution. Typical final concentration of the compounds was 10 μM. The plates were placed on a shaker for 1 min at RT, sealed and incubated at room temperature for specified time period. 5 μl of reaction mix was added to 10 μl of 0.2% formic acid stop solution and mixed well. Typical end points were 30, 120, 600 and 1440 min.
Data were collected using Waters Acquity H-class UPLC system/Xevo G2-XS TOF mass spectrometer. The protein was injected in their liquid phase onto a Bruker Microtrap protein column TR1/15109/03. The following buffers were used to set LC gradient: Buffer A: 0.2% formic acid H20; B: 0.2% formic acid CAN. The protein was eluted from the column using the following LC Gradient: 0-0.4 min, 10% B to 30% B; 0.4 min-2.4 min, to 90% B, 2.5 min, 10% B, 3 min, 10% B. Initial data analysis was performed using MaxEnt software right after data acquisition.
The standard auto processing function was used to define percentage of unmodified and modified kRas protein using MexEnt software right after data acquisition. The highest peak was defined as 100% while smaller peak as assigned the number defined by autoprocessing function. The percent of modification corresponding to modified with exemplary compound and unmodified KRas GDP-loaded kRas (1-169) G12C, C51S, C80L, C118S were exported to Xcel data analysis software.
The percent of modified protein at the defined concentration of exemplary compound was calculated using the following formula: % mod=Num of modified peak/Sum of modified+unmodified.

KRAS G12C in H358 cells = molecular target: T2, KRAS G12C in H358 cells (Homo sapiens, UniProt P01116, G12C); assay: H358 Cell Activity Assay (Raf-1 RBD capture of active Ras, MSD); assay type: cell-based; conditions: 6 hours treatment
T2 construct: endogenous in cells; host or cells: H358
Method: (§1) Compounds presented in the present invention lead to the accumulation of the GDP bound Ras upon treatment of human cancer cell line.
(§2) The accumulation of the GDP-bound KRAS G12C in cellular environment was measured based on the principle that KRAS G12C only binds to its downstream kinase; Raf-1 (MAP Kinase Kinase Kinase), when in its active-GTP bound state. In this state, Ras binded to a domain of Raf-1 kinase referred to as the Ras Binding Domain (RBD).
(§3) H358 cells were grown in RPMI 1640 medium (Gibco 11875) supplemented with 10% fetal bovine serum and 1% penicillin/streptomycin. Cells were seeded in 96-well tissue culture plates at a density of 40,000 cells/well and allowed to attach for 16-24 hours. Test compounds were prepared as a 10 mM stock in DMSO and serially diluted in 100% DMSO using a 3-fold dilution scheme. An intermediate 5× concentrated plate in complete growth medium was made and 25 μl/well was added to the 100 μl of cells for a final concentration of 0.1% DMSO. Each concentration of exemplary compound was tested in duplicate. The negative control wells were cells with control inhibitor at 10 μM, and the positive control wells were cells without drugs, DMSO only. Plates were incubated for 6 hours at 37° C., 5% CO2. Following treatment, cells were washed 3× with ice-cold PBS and 100 μl/well ice-cold 1× Assay/Lysis. Buffer with protease inhibitors was added (25 mM HEPES, pH 7.5, 150 mM NaCl, 1% NP-40, 10 mM MgCl2, 1 mM EDTA, 2% Glycerol). Following lysis samples were frozen at −80° C.
(§4) Raf-1 RBD (LJIC-1988A1) was diluted to 100 ng/well in PBS and 5 μl/well was spot coated onto MSD high bind SECTOR plates (L15XB). Plates were incubated at room temperature for 1 hour on an orbital shaker. Plates were washed with PBS/0.05% Tween-20 and 50 μl/well of thawed lysate samples were added, followed by 50 μl of 1% MSD Blocker A in PBS/0.05% Tween-20 (R93BA). Plates were incubated for 1 hour on an orbital shaker and washed with PBS/0.05% Tween-20. 25 μl/well of Anti-pan-Ras Antibody (Cell Biolabs 244003) diluted 1:3000 was added in 1% MSD Blocker A solution and plates were incubated for 1 hour on an orbital shaker and washed with PBS/0.05% Tween-20. SULFO-TAG goat anti-mouse secondary antibody (MSD R32AC) was diluted 1:500 in MSD Blocker A solution and added at 25 μL/well. Plates were incubated for 1 hour on an orbital shaker and washed with PBS/0.05% Tween-20. 150 μl/well of Read Buffer T (MSD R92TC) diluted 1:3 in H2O was added and plates were read on a Meso Scale Discovery Sector Imager S600.
(§5) KRAS signal was normalized to maximum inhibition and DMSO control values, and IC50 values were generated using a 4 parameter fit of the dose response curve. The decrease in IC50 reflects that the exemplary compound lead to a higher level of accumulation of GDP-bound KRAS G12C than another exemplary compounds at specific timepoint of treatment of cancer cell line.

[2] = molecular target: T3, KRAS G12C in MiaPaCa2 cells (Homo sapiens, UniProt P01116, G12C); assay: MiaPaCa2 Cell Activity Assay (Raf-1 RBD capture of active Ras, MSD); assay type: cell-based; conditions: MIAPaCa-2 cells, 6 hours treatment; assay limit is 30.0 μM
T3 construct: endogenous in cells; host or cells: MiaPaCa2
Method: MiaPaCa2 Cell Activity Assay
as §1, §2
as §3, with “MiaPaCa2” for “H358”, “DMEM” for “RPMI 1640”, “11995)” for “11875)”
as §4, §5

## C=CC(=O)N1CCN(c2nc(N3CC(N(C)C)C3)nc3c2C[C@@H](C)[C@H](c2c(Cl)ccc4[nH]ncc24)C3)CC1 (relative stereo) [Example F5, 1-(4-{(6R,7R)-rel-7-(5-chloro-1H-indazol-4-yl)-2-[3-(dimethylamino)azetidin-1-yl]-6-methyl-5,6,7,8-tetrahydroquinazolin-4-yl}piperazin-1-yl)prop-2-en-1-one]
[1]
  % Modification (0.5 h): 72%
KRAS G12C in H358 cells
  IC50: 0.145 µM
[2]
  IC50: 0.154 µM

## C=CC(=O)N1CCN(c2nc(N3CC(N(C)C)C3)nc3c2C[C@@H](C)[C@H](c2c(Cl)c(C)cc4[nH]ncc24)C3)CC1 (relative stereo) [Example F6, 1-(4-{(6R,7R)-rel-7-(5-chloro-6-methyl-1H-indazol-4-yl)-2-[3-(dimethylamino)azetidin-1-yl]-6-methyl-5,6,7,8-tetrahydroquinazolin-4-yl}piperazin-1-yl)prop-2-en-1-one]
[1]
  % Modification (0.5 h): 83%
KRAS G12C in H358 cells
  IC50: 0.116 µM
[2]
  IC50: 0.126 µM

## C=CC(=O)N1CCN(c2nc(N3CC(N(C)C)C3)nc3c2C[C@@H](C)[C@H](c2c(C)ccc4[nH]ncc24)C3)CC1 (single isomer, unassigned) [Example F2]
[1]
  % Modification (0.5 h): 79%
KRAS G12C in H358 cells
  IC50: 0.277 µM
[2]
  IC50: 0.285 µM

## C=CC(=O)N1CCN(c2ncnc3c2C[C@@H](C)[C@H](c2c(C)ccc4[nH]ncc24)C3)CC1 [Example A5, 1-{4-[(6R,7R)-6-methyl-7-(5-methyl-1H-indazol-4-yl)-5,6,7,8-tetrahydroquinazolin-4-yl]piperazin-1-yl}prop-2-en-1-one]
[1]
  % Modification (0.5 h): 77%
KRAS G12C in H358 cells
  IC50: 0.78 µM
[2]
  IC50: 0.64 µM

## C=CC(=O)N1CCN(c2nc(OCCCN(C)C)nc3c2C[C@@H](C)[C@H](c2c(C)ccc4[nH]ncc24)C3)CC1 [Example C5, 1-{4-[(6R,7R)-2-[3-(dimethylamino)propoxy]-6-methyl-7-(5-methyl-1H-indazol-4-yl)-5,6,7,8-tetrahydroquinazolin-4-yl]piperazin-1-yl}prop-2-en-1-one]
[1]
  % Modification (0.5 h): 74%
KRAS G12C in H358 cells
  IC50: 0.468 µM
[2]
  IC50: 0.214 µM

## C=CC(=O)N1CCN(c2nc(OCCN(C)C)nc3c2C[C@@H](C)[C@H](c2c(C)ccc4[nH]ncc24)C3)CC1 [Example C6, 1-{4-[(6R,7R)-2-[2-(dimethylamino)ethoxy]-6-methyl-7-(5-methyl-1H-indazol-4-yl)-5,6,7,8-tetrahydroquinazolin-4-yl]piperazin-1-yl}prop-2-en-1-one]
[1]
  % Modification (0.5 h): 66%
KRAS G12C in H358 cells
  IC50: 0.521 µM
[2]
  IC50: 0.26 µM

## C=CC(=O)N1CCN(c2nc(OC[C@@H]3CCCN3C)nc3c2C[C@@H](C)[C@H](c2c(C)ccc4[nH]ncc24)C3)CC1 [Example C9, 1-{4-[(6R,7R)-6-methyl-7-(5-methyl-1H-indazol-4-yl)-2-{[(2S)-1-methylpyrrolidin-2-yl]methoxy}-5,6,7,8-tetrahydroquinazolin-4-yl]piperazin-1-yl}prop-2-en-1-one]
[1]
  % Modification (0.5 h): 74%
KRAS G12C in H358 cells
  IC50: 0.27 µM
[2]
  IC50: 0.382 µM

## C=CC(=O)N1CCN(c2nc(N3CC(N(C)C)C3)nc3c2C[C@@H](C)[C@H](c2c(Cl)c(C)cc4[nH]ncc24)C3)CC1 [Example F7, 1-(4-{(6R,7R)-7-(5-chloro-6-methyl-1H-indazol-4-yl)-2-[3-(dimethylamino)azetidin-1-yl]-6-methyl-5,6,7,8-tetrahydroquinazolin-4-yl}piperazin-1-yl)prop-2-en-1-one]
[1]
  % Modification (0.5 h): 82%
KRAS G12C in H358 cells
  IC50: 0.062 µM
[2]
  IC50: 0.108 µM

## C=CC(=O)N1CCN(c2nc(N3CC(N(C)C)C3)nc3c2C[C@@H](C)[C@H](c2c(Cl)c(C)cc4[nH]ncc24)C3)C[C@H]1C [Example F12, 1-[(2R)-4-{(6R,7R)-7-(5-chloro-6-methyl-1H-indazol-4-yl)-2-[3-(dimethylamino)azetidin-1-yl]-6-methyl-5,6,7,8-tetrahydroquinazolin-4-yl}-2-methylpiperazin-1-yl]prop-2-en-1-one]
[1]
  % Modification (0.5 h): 84%
KRAS G12C in H358 cells
  IC50: 0.064 µM
[2]
  IC50: 0.06 µM

## C=CC(=O)N1CCN(c2nc(N3CC(N(C)C)C3)nc3c2C[C@@H](C)[C@H](c2c(C)c(Cl)cc4[nH]ncc24)C3)CC1 [Example F14, 1-(4-{(6R,7R)-7-(6-chloro-5-methyl-1H-indazol-4-yl)-2-[3-(dimethylamino)azetidin-1-yl]-6-methyl-5,6,7,8-tetrahydroquinazolin-4-yl}piperazin-1-yl)prop-2-en-1-one]
[1]
  % Modification (0.5 h): 72%
KRAS G12C in H358 cells
  IC50: 0.102 µM
[2]
  IC50: 0.068 µM
